Literature values in CN117800914A, “一种抗SARS-CoV-2病毒奥密克戎突变种抑制剂” (Second Military Medical University SMMU, priority 2023, dated 2024).

Test system: COVID-19
Details: early use, cited from earlier work

In the case of `CCC(CC)COC(=O)[C@H](C)N[P@](=O)(OC[C@H]1O[C@@](C#N)(c2ccc3c(N)ncnn23)[C@H](O)[C@@H]1O)Oc1ccccc1` [瑞德西韦], the “reduction of risk of severe COVID-19” value is given as 87%.
In the case of `CC(C)C(=O)OC[C@H]1O[C@@H](n2ccc(NO)nc2=O)[C@H](O)[C@@H]1O` [莫那匹韦], the “reduction of risk of hospitalization/death (in words)” value (mild to moderate patients at risk of progression) is given as “可降低住院/死亡风险”.
